# Reference: US11464770B2, “Anticancer pharmaceutical composition” (NATIONAL CANCER CENTER, priority 2016, dated 2022)
# Like-named read-outs stand apart in the source and are kept apart here.
# Legend:
# [1] = system: blood cancer cell lines (e.g. HL-60, Jurkat, Raji, Ramos, Daudi, MOLT-4); test: Cell based assay, cell viability (CellTiter-Glo), blood cancer cell lines; conditions: Homo sapiens
# How it was run: (§1)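 Cells were trypsinized, seeded, and left 24 h before compound was added at 0 to 2 μM final. After a further 72 h of culture, viability was read by ATP-based luminescence.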
# [2] = system: lung cancer cell lines (e.g. NCI-H23, NCI-H1229); test: Cell based assay, cell viability (CellTiter-Glo), lung cancer cell lines; conditions: Homo sapiens, 72 hours treatment, CellTiter-Glo
# How it was run: as §1
# [3] = system: cervical carcinoma cell lines; test: Cell based assay, cell viability (CellTiter-Glo), cervical carcinoma cell lines; conditions: Homo sapiens; HeLa cells
# melanoma cell lines = test: Cell based assay, cell viability (CellTiter-Glo), melanoma cell lines; conditions: Homo sapiens; LOX-IMVI cell line
# How it was run: as §1
# [4] = system: RT4: human urinary bladder transitional cell papilloma; test: Cell based assay, cytotoxicity in RT4 papilloma cells (selectivity); conditions: Homo sapiens, RT-4; RT4 cells
# [5] = system: ovarian cancer cell lines; test: Cell based assay, cell viability (CellTiter-Glo), ovarian cancer cell lines; conditions: Homo sapiens; OVCAR-3 cells
# How it was run: as §1
# [6] = MV4-11, blood cancer cell line MV-4-11, 72 hours, read-out: IC50, MV-4-11
# [7] = blood cancer cell line Daudi, 72 hours, read-out: IC50, Daudi
# [8] = blood cancer cell line HL-60, 72 hours, read-out: IC50, HL-60
# [9] = blood cancer cell line Jurkat, 72 hours, read-out: IC50, Jurkat
# [10] = blood cancer cell line MOLT-4, 72 hours, read-out: IC50, MOLT-4
# [11] = blood cancer cell line Raji, 72 hours, read-out: IC50, Raji
# [12] = blood cancer cell line Ramos (RA 1), 72 hours, read-out: IC50, Ramos (RA 1)
# [13] = blood cancer cell line U-937, 72 hours, read-out: IC50, U-937
# [14] = A549 cells, read-out: IC50, lung cancer cell line A549
# [15] = DMS 114 cells, read-out: IC50, lung cancer cell line DMS 114
# [16] = NCI-H23 cells, read-out: IC50, lung cancer cell line NCI-H23
# [17] = NCI-H460 cells, read-out: IC50, lung cancer cell line NCI-H460
# [18] = NCI-H522 cells, read-out: IC50, lung cancer cell line NCI-H522
# [19] = NCI-H1299 cells, read-out: IC50, lung cancer cell line NCI-H1299
# [20] = NCI-H1437 cells, read-out: IC50, lung cancer cell line NCI-H1437
Compound,"IC50 [1, 6] [µM]","IC50 [1, 7] [µM]","IC50 [1, 8] [µM]","IC50 [1, 9] [µM]","IC50 [1, 10] [µM]","IC50 [1, 11] [µM]","IC50 [1, 12] [µM]","IC50 [1, 13] [µM]","IC50 [2, 14] [µM]","IC50 [2, 15] [µM]","IC50 ([2]; MRC-5 cells, read-out: IC50) [µM]","IC50 [2, 16] [µM]","IC50 [2, 17] [µM]","IC50 [2, 18] [µM]","IC50 [2, 19] [µM]","IC50 [2, 20] [µM]",IC50 [3] [µM],IC50 (melanoma cell lines) [µM],IC50 [4] [µM],IC50 [5] [µM]
"Cc1cc(C[S+]([O-])c2[nH]c3c(Cl)ccc(Cl)c3c(=O)c2C(=O)C(C)C)no1 (stereo not shown) [Compound 86, 5,8-dichloro-3-isobutyryl-2-(((5-methylisoxazol-3-yl)methyl)sulfinyl)quinolin-4(1H)-one]",0.71,0.65,1.38,0.55,1.01,0.82,0.46,1.23,1.19,> 2,1.13,0.71,1.49,1.09,1.23,< 2,> 2,0.71,> 10,0.38
"CC(=O)c1c([S+]([O-])Cc2ccc([N+](=O)[O-])cc2)[nH]c2c(Cl)ccc(Cl)c2c1=O (stereo not shown) [Compound 57, 3-acetyl-5,8-dichloro-2-((4-nitrobenzyl)sulfinyl)quinolin-4(1H)-one]",> 2,> 2,> 2,> 2,> 2,> 2,> 2,> 2,> 2,> 2,> 2,1.83,> 2,> 2,> 2,> 10,> 10,> 2,> 10,> 2
"CC(=O)c1c([S+]([O-])Cc2ccc(C(F)(F)F)cc2)[nH]c2c(Br)ccc(Cl)c2c1=O (stereo not shown) [Compound 70, 3-acetyl-8-bromo-5-chloro-2-((4-(trifluoromethyl)benzyl)sulfinyl)quinolin-4(1H)-one]",1.52,1.6,> 2,1.09,1.31,1.32,1.9,> 2,1.99,> 2,1.01,1.03,1.61,> 2,1.47,> 10,> 10,1.19,> 10,1.18
"CC(=O)c1c([S+]([O-])Cc2cc(C)on2)[nH]c2c(Br)ccc(Cl)c2c1=O (stereo not shown) [Compound 51, 3-acetyl-8-bromo-5-chloro-2-(((5-methylisoxazol-3-yl)methyl)sulfinyl)quinolin-4(1H)-one]",0.68,1.66,0.95,0.85,1.44,0.76,1.07,0.63,> 2,> 2,0.58,0.77,1.62,1.73,,> 10,> 10,1.46,> 10,0.85
"CC(=O)c1c([S+]([O-])Cc2cccc(F)c2)[nH]c2c(Br)ccc(Cl)c2c1=O (stereo not shown) [Compound 50, 3-acetyl-8-bromo-5-chloro-2-((3-fluorobenzyl)sulfinyl)quinolin-4(1H)-one]",> 2,> 2,> 2,1.2,1.66,1.41,> 2,> 2,> 2,> 2,> 2,1.14,> 2,> 2,1.94,> 10,> 10,1.51,> 10,0.89
"CC(=O)c1c([S+]([O-])Cc2ccc(C(F)(F)F)o2)[nH]c2c(Br)ccc(Cl)c2c1=O (stereo not shown) [Compound 72, 3-acetyl-8-bromo-5-chloro-2-(((5-(trifluoromethyl)furan-2-yl)methyl)sulfinyl)quinolin-4(1H)-one]",1.12,1.6,1.3,0.78,1.05,0.94,1.37,0.97,1.79,1.94,0.72,0.71,1.54,> 2,1.21,> 10,> 2,0.92,> 10,0.73
"COC(=O)c1ccc(C[S+]([O-])c2[nH]c3c(Cl)ccc(Cl)c3c(=O)c2C(C)=O)o1 (stereo not shown) [Compound 89, methyl 5-(((3-acetyl-5,8-dichloro-4-oxo-1,4-dihydroquinolin-2-yl)sulfinyl)methyl)furan-2-carboxylate]",1.75,> 2,> 2,1.38,> 2,> 2,1.71,> 2,> 2,> 2,> 2,1.47,> 2,> 2,> 2,> 10,> 10,1.65,> 10,0.86
